According to publication doi:10.1101/2024.08.19.608619, “Discovery of potent SARS-CoV-2 nsp3 macrodomain inhibitors uncovers lack of translation to cellular antiviral response” (bioRxiv, 2024):
≈ marks a conversion by molar mass, not a printed value. Where “and” joins values, the source holds several entries; their conditions need not be identical. Equal entries are not always repeated. Where two headings read alike, the source gives them in different places.

How the values were obtained:
LogD = conditions: pH 7.4, In vitro LogD
CHK1(h) = biological target: T1, CHK1(h) (Homo sapiens, UniProt O14757); assay: biochemical; parameters: In vitro kinase panel profiling, per cent remaining kinase activity at 10 uM; conditions: atp_concentration=90, read-out: % of control remaining
T1 construct: gene CHEK1
T1 sequence (O14757 1-476): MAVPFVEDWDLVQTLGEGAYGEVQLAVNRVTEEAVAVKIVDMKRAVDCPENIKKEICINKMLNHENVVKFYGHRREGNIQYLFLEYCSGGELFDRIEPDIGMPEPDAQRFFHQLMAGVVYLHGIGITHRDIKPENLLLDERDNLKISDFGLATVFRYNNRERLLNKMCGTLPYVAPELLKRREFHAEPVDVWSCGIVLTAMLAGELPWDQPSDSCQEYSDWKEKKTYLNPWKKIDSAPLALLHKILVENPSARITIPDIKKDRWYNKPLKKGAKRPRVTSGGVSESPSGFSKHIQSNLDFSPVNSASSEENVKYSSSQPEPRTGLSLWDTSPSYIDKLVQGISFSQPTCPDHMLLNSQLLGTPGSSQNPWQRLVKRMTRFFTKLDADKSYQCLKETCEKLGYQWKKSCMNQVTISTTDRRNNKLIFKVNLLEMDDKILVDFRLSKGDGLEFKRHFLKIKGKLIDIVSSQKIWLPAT
Excerpt: (§1) We derisk potential for off-target activity by profiling the compound in a CEREP panel, a standard secondary pharmacology assessment, as well as a kinase panel to derisk a potential hinge-binding motif in our leads, and a PARP panel to derisk activity against human […]. Reassuringly, the compounds are selective, with the only off-targets being moderate human CHRM2 and KOR receptors activity associated with ASAP-0011198.

EphB4(h) = biological target: T2, EphB4(h) (Homo sapiens, UniProt P54760); assay: biochemical; parameters: In vitro kinase panel profiling, per cent remaining kinase activity at 10 uM; conditions: atp_concentration=10, read-out: % of control remaining
T2 sequence (P54760 1-987): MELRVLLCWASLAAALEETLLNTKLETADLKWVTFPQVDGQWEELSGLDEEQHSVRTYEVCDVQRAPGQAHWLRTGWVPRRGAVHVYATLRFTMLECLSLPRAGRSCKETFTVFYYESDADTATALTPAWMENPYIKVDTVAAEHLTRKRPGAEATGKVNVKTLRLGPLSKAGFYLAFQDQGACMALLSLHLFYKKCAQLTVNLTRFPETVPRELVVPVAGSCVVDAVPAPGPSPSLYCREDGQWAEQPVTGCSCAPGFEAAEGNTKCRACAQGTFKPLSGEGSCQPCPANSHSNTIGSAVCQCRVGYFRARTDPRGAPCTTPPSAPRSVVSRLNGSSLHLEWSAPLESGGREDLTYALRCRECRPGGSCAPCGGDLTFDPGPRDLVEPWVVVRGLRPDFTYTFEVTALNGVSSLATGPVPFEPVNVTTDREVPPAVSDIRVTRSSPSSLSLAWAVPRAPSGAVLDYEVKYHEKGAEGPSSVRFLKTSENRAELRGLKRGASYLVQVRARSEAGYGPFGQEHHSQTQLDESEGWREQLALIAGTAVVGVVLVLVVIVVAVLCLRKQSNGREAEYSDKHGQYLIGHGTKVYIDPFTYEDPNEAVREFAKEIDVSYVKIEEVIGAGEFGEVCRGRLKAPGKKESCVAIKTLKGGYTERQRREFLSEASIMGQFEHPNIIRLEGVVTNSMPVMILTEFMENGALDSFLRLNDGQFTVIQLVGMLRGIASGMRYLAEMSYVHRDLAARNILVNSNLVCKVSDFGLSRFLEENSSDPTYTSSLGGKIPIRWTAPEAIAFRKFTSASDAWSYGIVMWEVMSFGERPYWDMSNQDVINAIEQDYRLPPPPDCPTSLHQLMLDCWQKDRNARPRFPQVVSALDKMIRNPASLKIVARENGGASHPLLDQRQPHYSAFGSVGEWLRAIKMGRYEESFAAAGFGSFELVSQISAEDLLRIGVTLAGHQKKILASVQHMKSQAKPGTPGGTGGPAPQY
Excerpt: as §1

IKKα(h) = biological target: T3, IKKα(h) (Homo sapiens, UniProt O15111); assay: biochemical; parameters: In vitro kinase panel profiling, per cent remaining kinase activity at 10 uM; conditions: atp_concentration=10, read-out: % of control remaining
T3 construct: gene CHUK
T3 sequence (O15111 1-745): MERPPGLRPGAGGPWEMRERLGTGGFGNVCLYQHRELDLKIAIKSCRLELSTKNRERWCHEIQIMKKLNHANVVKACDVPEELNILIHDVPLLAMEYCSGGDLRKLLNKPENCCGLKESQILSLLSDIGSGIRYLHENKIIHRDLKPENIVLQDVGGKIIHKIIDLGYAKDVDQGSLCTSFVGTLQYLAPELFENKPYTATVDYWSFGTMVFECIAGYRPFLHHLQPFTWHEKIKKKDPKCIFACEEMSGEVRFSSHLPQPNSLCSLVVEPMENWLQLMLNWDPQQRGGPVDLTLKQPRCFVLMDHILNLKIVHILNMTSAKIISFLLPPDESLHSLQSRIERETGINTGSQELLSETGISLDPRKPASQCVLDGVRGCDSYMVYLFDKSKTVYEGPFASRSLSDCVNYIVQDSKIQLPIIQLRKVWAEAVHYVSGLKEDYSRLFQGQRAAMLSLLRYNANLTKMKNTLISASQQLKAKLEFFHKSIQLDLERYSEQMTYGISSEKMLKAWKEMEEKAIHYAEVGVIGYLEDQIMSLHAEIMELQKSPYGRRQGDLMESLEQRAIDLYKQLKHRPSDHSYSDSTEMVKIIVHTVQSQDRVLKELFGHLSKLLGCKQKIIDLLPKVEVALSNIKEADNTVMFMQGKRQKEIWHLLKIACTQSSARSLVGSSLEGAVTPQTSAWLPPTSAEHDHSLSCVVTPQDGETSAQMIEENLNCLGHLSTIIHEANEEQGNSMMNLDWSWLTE
Excerpt: as §1

Rsk1(h) = biological target: T4, Rsk1(h) (Homo sapiens, UniProt Q15418); assay: biochemical; parameters: In vitro kinase panel profiling, per cent remaining kinase activity at 10 uM; conditions: atp_concentration=45, read-out: % of control remaining
T4 construct: gene RPS6KA1
Excerpt: as §1

[1] = In vitro kinetic solubility; conditions: In vitro kinetic solubility, ph 7.4
[2] = Permeability Papp (AB) MDR1/MDCKII; conditions: for perc_recovery_a_to_b_mean / perc_recovery_a_to_b_inhibitor_mean: recovery A to B; for papp_b_to_a_mean: B to A; for perc_recovery_b_to_a_mean / perc_recovery_b_to_a_inhibitor_mean: recovery B to A
[3] = In vitro MDR1-MDCKII permeability, mean
[4] = In vitro MDR1-MDCKII permeability, A to B, mean
[5] = In vitro MDR1-MDCKII permeability, A to B, no inhibitor
[6] = In vitro MDR1-MDCKII permeability, no inhibitor
[7] = MDR1-MDCKII, with inhibitor Cyclosporin A
[8] = MDR1-MDCKII, with inhibitor Verapamil

T4 sequence (Q15418 whole entry): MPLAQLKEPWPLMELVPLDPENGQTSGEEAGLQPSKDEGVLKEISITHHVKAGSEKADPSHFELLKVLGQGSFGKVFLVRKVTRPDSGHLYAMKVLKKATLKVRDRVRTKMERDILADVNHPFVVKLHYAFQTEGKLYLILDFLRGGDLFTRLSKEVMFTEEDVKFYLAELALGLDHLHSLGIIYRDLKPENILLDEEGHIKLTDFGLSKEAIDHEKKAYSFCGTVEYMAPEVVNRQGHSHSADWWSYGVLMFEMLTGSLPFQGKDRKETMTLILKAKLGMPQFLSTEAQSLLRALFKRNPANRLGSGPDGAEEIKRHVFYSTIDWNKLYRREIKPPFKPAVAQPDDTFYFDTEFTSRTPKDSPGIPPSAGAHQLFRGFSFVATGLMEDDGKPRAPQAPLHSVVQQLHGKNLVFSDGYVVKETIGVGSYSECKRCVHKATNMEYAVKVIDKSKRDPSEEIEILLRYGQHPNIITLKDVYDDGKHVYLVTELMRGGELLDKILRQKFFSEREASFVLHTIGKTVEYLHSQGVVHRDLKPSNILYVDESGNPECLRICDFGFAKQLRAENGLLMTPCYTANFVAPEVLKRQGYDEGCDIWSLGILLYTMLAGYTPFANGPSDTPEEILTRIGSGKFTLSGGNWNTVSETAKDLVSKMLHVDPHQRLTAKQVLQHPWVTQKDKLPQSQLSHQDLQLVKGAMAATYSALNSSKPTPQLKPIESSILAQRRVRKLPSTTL

Structure (SMILES): CC(C)C(Nc1ncnc2[nH]ccc12)c1ccc2c(c1)S(=O)(=O)CCC2 (centres unmarked) [ASAP-0008327]
- logd (LogD; pH 7.4, logd): 2.5
- remaining activity at 10 µM (CHK1(h); batch_name=ASAP-0008327-001): 84%
- remaining activity at 10 µM (EphB4(h); batch_name=ASAP-0008327-001): 91%
- remaining activity at 10 µM (IKKα(h); batch_name=ASAP-0008327-001): 91%
- remaining activity at 10 µM (Rsk1(h); batch_name=ASAP-0008327-001): 92%
- solubility ([1]; pH 7.4, solubility_mean): 385 µM (≈ 143 µg/mL)
- perc_recovery_a_to_b_mean [2, 3]: 87.0%

Structure (SMILES): COc1ccc([C@@H](Cc2nnn[nH]2)NC(=O)c2ncnc3[nH]ccc23)cc1 [ASAP-0008340]
- logd (LogD): -0.1
- remaining activity at 10 µM (CHK1(h); batch_name=ASAP-0008340-001): 95%
- remaining activity at 10 µM (EphB4(h); batch_name=ASAP-0008340-001): 88%
- remaining activity at 10 µM (IKKα(h); batch_name=ASAP-0008340-001): 99%
- remaining activity at 10 µM (Rsk1(h); batch_name=ASAP-0008340-001): 98%
- solubility_mean [1]: 395 µM (≈ 144 µg/mL)
- papp_a_to_b_mean [2, 4]: 1.39 ×10⁻⁶ cm/s
- perc_recovery_a_to_b_mean [2, 3]: 89.1%

Structure (SMILES): CC(C)[C@@H](Nc1ncnc2[nH]c(-c3cnn(C)c3C#N)cc12)c1ccc2c(n1)OCCO2 [ASAP-0008418]
- logd (LogD): 3.4 and 3.6
- remaining activity at 10 µM (CHK1(h); batch_name=ASAP-0008418-001): 108%
- remaining activity at 10 µM (EphB4(h); batch_name=ASAP-0008418-001): 75%
- remaining activity at 10 µM (IKKα(h); batch_name=ASAP-0008418-001): 111%
- remaining activity at 10 µM (Rsk1(h); batch_name=ASAP-0008418-001): 145%
- solubility_mean [1]: 89 µM and 60 µM
- papp_a_to_b_mean [2, 4]: 12.8 ×10⁻⁶ cm/s and 21.3 ×10⁻⁶ cm/s
- perc_recovery_a_to_b_mean [2, 3]: 82.0% and 88.6%

Structure (SMILES): CC(C)[C@H](Nc1ncnc2[nH]ccc12)c1ccc2c(c1)S(=O)(=O)CCC2 [ASAP-0008674]
- logd (LogD): 2.7
- remaining activity at 10 µM (CHK1(h); batch_name=ASAP-0008674-002): 110%
- remaining activity at 10 µM (EphB4(h); batch_name=ASAP-0008674-002): 86%
- remaining activity at 10 µM (IKKα(h); batch_name=ASAP-0008674-002): 92%
- remaining activity at 10 µM (Rsk1(h); batch_name=ASAP-0008674-002): 102%
- solubility_mean [1]: 374 µM (≈ 139 µg/mL)
- papp_a_to_b_mean [2, 4]: 5.5 ×10⁻⁶ cm/s
- papp_a_to_b_mean [2, 5]: 0.12 ×10⁻⁶ cm/s and 0.0631 ×10⁻⁶ cm/s
- papp_b_to_a_mean [2, 6]: 5.9 ×10⁻⁶ cm/s and 5.29 ×10⁻⁶ cm/s
- efflux_ratio [2, 6]: 49.5 and 83.8
- perc_recovery_a_to_b_mean [2, 3]: 85.4%
- perc_recovery_a_to_b_mean [2, 6]: 80.0% and 78.8%
- perc_recovery_b_to_a_mean [2, 6]: 76.5% and 89.6%
- perc_recovery_a_to_b_inhibitor_mean [2, 7]: 83.2%
- perc_recovery_a_to_b_inhibitor_mean [2, 8]: 90.5%
- perc_recovery_b_to_a_inhibitor_mean [2, 7]: 87.0%
- perc_recovery_b_to_a_inhibitor_mean [2, 8]: 86.9%

Structure (SMILES): CC(C)[C@H](Nc1ncnc2[nH]c(-c3cnn(C)c3C#N)cc12)c1ccc2c(n1)OCCO2 [ASAP-0010715]
- logd (LogD): 3.7
- remaining activity at 10 µM (CHK1(h); batch_name=ASAP-0010715-002): 119%
- remaining activity at 10 µM (EphB4(h); batch_name=ASAP-0010715-002): 89%
- remaining activity at 10 µM (IKKα(h); batch_name=ASAP-0010715-002): 120%
- remaining activity at 10 µM (Rsk1(h); batch_name=ASAP-0010715-002): 120%
- solubility_mean [1]: 53 µM (≈ 22.8 µg/mL)
- papp_b_to_a_mean [2, 6]: 5.98 ×10⁻⁶ cm/s
- perc_recovery_a_to_b_mean [2, 6]: 70.1% and 79.9%
- perc_recovery_b_to_a_mean [2, 6]: 76.7%
- perc_recovery_a_to_b_inhibitor_mean [2, 7]: 75.0%
- perc_recovery_b_to_a_inhibitor_mean [2, 7]: 76.7%

Structure (SMILES): CC(C)[C@@H](Nc1ncnc2[nH]c(-c3cnn(C)c3C#N)cc12)c1ccc2c(n1)OCCO2 [ASAP-0010716]
- logd (LogD): 3.9
- remaining activity at 10 µM (CHK1(h); batch_name=ASAP-0010716-002): 120%
- remaining activity at 10 µM (EphB4(h); batch_name=ASAP-0010716-002): 91%
- remaining activity at 10 µM (IKKα(h); batch_name=ASAP-0010716-002): 104%
- remaining activity at 10 µM (Rsk1(h); batch_name=ASAP-0010716-002): 102%
- solubility_mean [1]: 50 µM (≈ 21.5 µg/mL)
- papp_a_to_b_mean [2, 4]: 14.6 ×10⁻⁶ cm/s
- papp_a_to_b_mean [2, 5]: 1.05 ×10⁻⁶ cm/s and 1.02 ×10⁻⁶ cm/s and 0.676 ×10⁻⁶ cm/s
- papp_b_to_a_mean [2, 6]: 6.5 ×10⁻⁶ cm/s and 6.1 ×10⁻⁶ cm/s and 8.26 ×10⁻⁶ cm/s
- perc_recovery_a_to_b_mean [2, 3]: 85.7%
- perc_recovery_a_to_b_mean [2, 6]: 67.5% and 74.0% and 87.7%
- perc_recovery_b_to_a_mean [2, 6]: 70.0% and 84.4% and 95.1%
- papp_a_to_b_inhibitor_mean ([2]; MDR1-MDCKII, A to B, with inhibitor Cyclosporin A): 4.51 ×10⁻⁶ cm/s
- perc_recovery_a_to_b_inhibitor_mean [2, 7]: 115.0% and 75.2%
- perc_recovery_a_to_b_inhibitor_mean [2, 8]: 107.0%
- perc_recovery_b_to_a_inhibitor_mean [2, 7]: 106.0% and 78.2%
- perc_recovery_b_to_a_inhibitor_mean [2, 8]: 88.6%
